Assay results: US20180000085A1, “USE OF PICOLINAMIDE COMPOUNDS WITH FUNGICIDAL ACTIVITY” (DOW AGROSCIENCES LLC, priority 2014, published 2018)

How the values were obtained:
Zymoseptoria tritici = experiment: Leaf blotch of wheat (SEPTTR) disease control on wheat seedlings; assay type: in vivo; design: key to SEPTTR 1DP, HV activity at 100 ppm (% control rating) / SEPTTR 3DC, HV activity at 100 ppm (% control rating) / SEPTTR disease control, 1DP / SEPTTR disease control, 3DC / SEPTTR 1DP disease control rating, HV activity / SEPTTR 3DC disease control rating, HV activity / SEPTTR 3DC, LV activity at 125.1 g/H (% Control rating) / SEPTTR 1DP, LV activity at 125.1 g/H (% Control rating) / SEPTTR 1DP disease control rating, LV activity at 125.1 g/H / SEPTTR 3DC disease control rating, LV activity at 125.1 g/H / SEPTTR 3DC disease control rating, HV activity at 100 ppm / SEPTTR 1DP disease control rating, HV activity at 100 ppm / HV activity at 100 ppm SEPTTR 3DC (disease control rating) / HV activity at 100 ppm SEPTTR 1DP (disease control rating) / LV activity at 125.1 g/H SEPTTR 1DP (disease control rating) / LV activity at 125.1 g/H SEPTTR 3DC (disease control rating): A: > 80; B: ≤ 80; C: Not Tested; D: No Activity Observed in the Reported Assay; settings: for SEPTTR 1DP disease control rating, HV activity / SEPTTR 3DC disease control rating, HV activity: HV application at 100 ppm
Puccinia triticina = experiment: Wheat brown rust (PUCCRT) disease control on wheat seedlings; assay type: in vivo; design: key to PUCCRT 3DC, HV activity at 100 ppm (% control rating) / PUCCRT disease control, 3DC / PUCCRT 1DP disease control rating, HV activity / PUCCRT 3DC disease control rating, HV activity / PUCCRT 3DC, LV activity at 125.1 g/H (% Control rating) / PUCCRT 1DP, LV activity at 125.1 g/H (% Control rating) / PUCCRT 3DC disease control rating, LV activity at 125.1 g/H / PUCCRT 1DP disease control rating, LV activity at 125.1 g/H / PUCCRT 3DC disease control rating, HV activity at 100 ppm / PUCCRT 1DP disease control rating, HV activity at 100 ppm / HV activity at 100 ppm PUCCRT 3DC (disease control rating) / LV activity at 125.1 g/H PUCCRT 1DP (disease control rating) / LV activity at 125.1 g/H PUCCRT 3DC (disease control rating): A: > 80; B: ≤ 80; C: Not Tested; D: No Activity Observed in the Reported Assay; settings: for PUCCRT 1DP disease control rating, HV activity / PUCCRT 3DC disease control rating, HV activity: HV application at 100 ppm
[1] = low volume application, 125.1 g/H, 1 day protectant
[2] = low volume application, 125.1 g/H, 3 day curative
[3] = low volume application, 125.1 g/H, 1 Day Protectant
[4] = low volume application, 125.1 g/H, 3 Day Curative
[5] = 1 Day Protectant, wheat leaf blotch
[6] = 3 Day Curative, wheat leaf blotch
[7] = 1 Day Protectant, wheat brown rust
[8] = 3 Day Curative, wheat brown rust
[9] = high volume application, 100 ppm, 1 day protectant
[10] = high volume application, 100 ppm, 3 day curative

COc1ccnc(C(=O)N[C@@H](C)C(=O)O[C@@H](C)[C@@H](OCC(C)C)c2ccccc2)c1OCOC(C)=O [Cmpd 880]
SEPTTR 1DP disease control rating, LV activity at 125.1 g/H (Zymoseptoria tritici; [1]): B (≤ 80) | SEPTTR 3DC disease control rating, LV activity at 125.1 g/H (Zymoseptoria tritici; [2]): B (≤ 80) | PUCCRT 1DP disease control rating, LV activity at 125.1 g/H (Puccinia triticina; [1]): A (> 80) | PUCCRT 3DC disease control rating, LV activity at 125.1 g/H (Puccinia triticina; [2]): A (> 80)

CC[C@H](CC1CCCC1)[C@@H](OCC1CC1)[C@H](C)OC(=O)[C@H](C)NC(=O)c1nccc(OC)c1OC(C)=O [Cmpd 508]
SEPTTR 1DP, LV activity at 125.1 g/H (% Control rating) (Zymoseptoria tritici; [3]): B (≤ 80) | SEPTTR 3DC, LV activity at 125.1 g/H (% Control rating) (Zymoseptoria tritici; [4]): B (≤ 80) | PUCCRT 1DP, LV activity at 125.1 g/H (% Control rating) (Puccinia triticina; [3]): B (≤ 80) | PUCCRT 3DC, LV activity at 125.1 g/H (% Control rating) (Puccinia triticina; [4]): B (≤ 80)

CC[C@H](Cc1ccccc1)[C@@H](Oc1ccccc1)[C@H](C)OC(=O)[C@H](C)NC(=O)c1nccc(OC)c1O [Cmpd 311]
SEPTTR 1DP disease control rating, HV activity (Zymoseptoria tritici; [5]): A (> 80) | SEPTTR 3DC disease control rating, HV activity (Zymoseptoria tritici; [6]): B (≤ 80) | PUCCRT 1DP disease control rating, HV activity (Puccinia triticina; [7]): A (> 80) | PUCCRT 3DC disease control rating, HV activity (Puccinia triticina; [8]): A (> 80)

CCC(CC)[C@@H](Oc1ccccc1)[C@H](C)OC(=O)CNC(=O)c1nccc(OC)c1O [Cmpd 307]
SEPTTR 1DP disease control rating, HV activity (Zymoseptoria tritici; [5]): D | SEPTTR 3DC disease control rating, HV activity (Zymoseptoria tritici; [6]): A (> 80) | PUCCRT 1DP disease control rating, HV activity (Puccinia triticina; [7]): A (> 80) | PUCCRT 3DC disease control rating, HV activity (Puccinia triticina; [8]): A (> 80)

CCCOC(CC)C(Oc1ccccc1)C(C)OC(=O)C(NC(=O)c1nccc(OC)c1OC(C)=O)C(C)CC (centres unmarked) [Cmpd 453]
SEPTTR 1DP disease control rating, HV activity (Zymoseptoria tritici; [5]): B (≤ 80) | SEPTTR 3DC disease control rating, HV activity (Zymoseptoria tritici; [6]): B (≤ 80) | PUCCRT 1DP disease control rating, HV activity (Puccinia triticina; [7]): A (> 80) | PUCCRT 3DC disease control rating, HV activity (Puccinia triticina; [8]): A (> 80)

COc1ccnc(C(=O)N[C@@H](C)C(=O)O[C@@H](C)COC(=O)C(C)C)c1O [Cmpd 336]
SEPTTR 1DP disease control rating, HV activity (Zymoseptoria tritici; [5]): B (≤ 80) | SEPTTR 3DC disease control rating, HV activity (Zymoseptoria tritici; [6]): B (≤ 80) | PUCCRT 1DP disease control rating, HV activity (Puccinia triticina; [7]): D | PUCCRT 3DC disease control rating, HV activity (Puccinia triticina; [8]): D

COCCC(=O)Oc1c(OC)ccnc1C(=O)NC(C)C(=O)OC(C)C(CC(C)C)Oc1ccccc1 (centres unmarked) [Cmpd 1100]
LV activity at 125.1 g/H SEPTTR 1DP (disease control rating) (Zymoseptoria tritici; low volume application, 125.1 g/H, 1 Day Protectant, wheat leaf blotch): A (> 80) | LV activity at 125.1 g/H SEPTTR 3DC (disease control rating) (Zymoseptoria tritici; low volume application, 125.1 g/H, 3 Day Curative, wheat leaf blotch): A (> 80) | LV activity at 125.1 g/H PUCCRT 1DP (disease control rating) (Puccinia triticina; low volume application, 125.1 g/H, 1 Day Protectant, wheat brown rust): A (> 80) | LV activity at 125.1 g/H PUCCRT 3DC (disease control rating) (Puccinia triticina; low volume application, 125.1 g/H, 3 Day Curative, wheat brown rust): A (> 80)

CCC[C@@H](OCC1CC1)[C@H](C)OC(=O)[C@H](C)NC(=O)c1nccc(OC)c1O [Cmpd 1003]
SEPTTR 1DP disease control rating, HV activity at 100 ppm (Zymoseptoria tritici; [9]): A (> 80) | SEPTTR 3DC disease control rating, HV activity at 100 ppm (Zymoseptoria tritici; [10]): B (≤ 80) | PUCCRT 1DP disease control rating, HV activity at 100 ppm (Puccinia triticina; [9]): A (> 80) | PUCCRT 3DC disease control rating, HV activity at 100 ppm (Puccinia triticina; [10]): A (> 80)

COc1ccnc(C(=O)NC(C)C(=O)OC(C)C(Oc2ccccc2)c2nccs2)c1OCOC(C)=O (mixture of isomers) [Cmpd 861]
SEPTTR 1DP disease control rating, LV activity at 125.1 g/H (Zymoseptoria tritici; [1]): D | SEPTTR 3DC disease control rating, LV activity at 125.1 g/H (Zymoseptoria tritici; [2]): B (≤ 80) | PUCCRT 1DP disease control rating, LV activity at 125.1 g/H (Puccinia triticina; [1]): A (> 80) | PUCCRT 3DC disease control rating, LV activity at 125.1 g/H (Puccinia triticina; [2]): A (> 80)

COc1ccnc(C(=O)NC(C)C(=O)OC(C)COC(=O)C(C)C)c1OCOC(C)=O (centres unmarked) [Cmpd 530]
SEPTTR 1DP, LV activity at 125.1 g/H (% Control rating) (Zymoseptoria tritici; [3]): B (≤ 80) | SEPTTR 3DC, LV activity at 125.1 g/H (% Control rating) (Zymoseptoria tritici; [4]): B (≤ 80) | PUCCRT 1DP, LV activity at 125.1 g/H (% Control rating) (Puccinia triticina; [3]): D | PUCCRT 3DC, LV activity at 125.1 g/H (% Control rating) (Puccinia triticina; [4]): D

CCCO[C@@H](C1CC1)[C@@H](Oc1ccccc1)[C@H](C)OC(=O)[C@H](C)NC(=O)c1nccc(OC)c1OCOC(C)=O [Cmpd 505]
SEPTTR 1DP, LV activity at 125.1 g/H (% Control rating) (Zymoseptoria tritici; [3]): B (≤ 80) | SEPTTR 3DC, LV activity at 125.1 g/H (% Control rating) (Zymoseptoria tritici; [4]): B (≤ 80) | PUCCRT 1DP, LV activity at 125.1 g/H (% Control rating) (Puccinia triticina; [3]): A (> 80) | PUCCRT 3DC, LV activity at 125.1 g/H (% Control rating) (Puccinia triticina; [4]): A (> 80)
